Results reported in article PMC12406664, “New derivatives of 6-nitrocoumarin-3-thiosemicarbazone exhibit improved antiparasitic activity in the placenta against Trypanosoma cruzi and Toxoplasma gondii” (Antimicrobial Agents and Chemotherapy, 2025).
Entries after “also recorded” stand apart in the source; their conditions may differ.

Legend:
[1] = system: T. cruzi trypomastigotes, Dm28 strain; assay: Resazurin viability assay on free T. cruzi trypomastigotes; conditions: Trypanosoma cruzi, 24 h, read-out: Viability T. cruzi (%)
Protocol: The reduction of resazurin sodium salt was used to determine the trypanocidal and toxoplasmicidal activity of the 6-nitrocoumarin-thiosemicarbazone hybrids 1–8. For this, treatment with the compounds was carried out for 24 h at a concentration of 100 µM.
NFX was used as a positive control for T. cruzi, and PMN was used for T. gondii. Untreated parasites served as a negative control. […] Subsequently, parasites with their respective conditions were transferred to a 96-well white fluorescence reading plate, adding resazurin at a final concentration of […] with 0.8 mM phenazine. The plate was incubated for 3 hours at 37°C in a humidified atmosphere with 5% CO2, and fluorescence measurements were taken using a microplate reader (Thermo Scientific Varioskan Flash) at excitation wavelengths of 560 nm and emission wavelengths of 590 nm.

[2] = system: T. gondii tachyzoites, RH strain; assay: Resazurin viability assay on free T. gondii tachyzoites; type: cell-based, Toxoplasma gondii
Description: Untreated parasites served as a negative control.

[3] = Lipophilicity by reversed-phase TLC (RM); conditions: reverse phase-C18, DMSO/phosphate buffer pH 7.4 (70:30 vol/vol), RM = log[(1/Rf) – 1]
Protocol: Lipophilicity was studied by reversed-phase TLC experiments. Precoated TLC plates SIL RP-18W/UV254 were used and eluted with DMSO/physiological serum (70:30, vol/vol). Stock solutions were prepared in pure DMSO (Aldrich) prior to use. The plates were developed in a closed chromatographic tank, dried, and the spots were located under UV light. The Rf values were averaged from three determinations and converted into RM values via the relationship: RM = log [(1/Rf)−1]

[4] = system: intracellular amastigotes of T. cruzi (Tulahuen β-gal); assay: Intracellular amastigotes, β-galactosidase-expressing T. cruzi in LLC-MK2 cells (CPRG); type: cell-based, Trypanosoma cruzi; conditions: 72 h
Protocol: The effect of the compounds over intracellular amastigotes of a β-galactosidase-expressing recombinant strain of T. cruzi (Tulahuen β-gal) was also evaluated (see Table S4 at https://doi.org/10.5281/zenodo.15694236). […] Similarly, intracellular anti-T. gondii tachyzoite was assessed using quantitative immunocytochemistry targeting the parasite’s P30 protein (see Table S4 at https://doi.org/10.5281/zenodo.15694236). […] The complete absence of activity of hydroxylated compounds against intracellular forms of both parasites was confirmed, which could be attributed to their inability to permeate mammalian cell membranes.
LLC-MK2 cells (2 × 10^4/well), suspended in 200 µL DMEM with 10% FBSi and 1% antibiotics (penicillin-streptomycin), were placed in each well of a 96-well plate and incubated for 24 hours. Subsequently, the culture medium was removed, and cell monolayers were infected by placing five trypomastigotes per cell in 200 µL of DMEM 2 for 24 hours under the same incubation conditions. After infection, the culture medium was removed, and cells were washed 4 times with 1× sterile PBS. Finally, 10 twofold serial dilutions (200 µM to 0.39 µM concentration range) of each compound, in DMEM 2 without phenol red, were placed in duplicate wells in a 96-well plate and incubated for 72 hours. […] Absorbance at 600 nm was read 4 hours later, in a multimodal GloMax microplate reader (Promega).

[5] = Cyclic voltammetry, reduction potentials in DMSO (HDME, vs. Ag/AgCl); conditions: 2.00 V/s
Protocol: Electrochemical studies were carried out on a Metrohm Autolab instrument model PGSTAT204, using dimethyl sulfoxide (DMSO) as the solvent (1 mM solutions), tetrabutylammonium perchlorate (0.1 M TBAP) as the supporting electrolyte, a hanging drop mercury electrode (HDME) as the working electrode, Ag/AgCl (3M KCl) as the reference electrode and a graphite rod as the counter electrode. All measurements were performed after bubbling with nitrogen (N2) for 10 minutes.

[6] = system: human placental explants (HPE); assay: Histopathology of uninfected HPE exposed to the compounds alone; conditions: explants incubated only with the compound, 24 h, IC50 concentration
Protocol: The HPE was fixed in 10% formaldehyde in 0.1 M phosphate buffer (pH 7.3) for 24 h, dehydrated in alcohol, clarified in xylene, embedded in paraffin, and sectioned at 3 µm. Paraffin histological sections were stained with hematoxylin-eosin for routine histological analysis, Picro Sirius red, and trichromic Masson for collagen histochemistry. Sections for the histological analysis were observed under an optical microscope (Leica DM500) and images were captured with a Leica ICC50 W camera ([7], [91]).

[7] = system: T. gondii (RH strain) in BeWo cells; assay: T. gondii DNA load in infected BeWo cells by real-time qPCR; type: cell-based, Toxoplasma gondii; conditions: IC50 concentration
Protocol: (§1) Cells or HPE were exposed to parasites. […] The following treatment conditions were used in both infection models. […] Untreated cells or HPE served as a negative control, and the compounds’ activity was compared with the reference drugs (NFX and PMN).
Subsequently, cells were exposed to parasites at a 1:1 ratio (cell: parasite) for 24 hours. Finally, the cells were washed with PBS and harvested using trypsin. For the parasitic DNA load in the ex vivo infection model, HPE was incubated in 24-well plates and exposed to parasites at a concentration of 10^5 parasites/mL for 24 hours. Finally, they were washed with PBS and homogenized using the ultraturrax homogenizer OMNI TipTM. Genomic DNA was extracted from BeWo cells or HPE using the Wizard Genomic DNA Purification Kit (Promega, USA) following the manufacturer’s instructions. The resulting DNA was quantified using a μDrop Plate DNA quantification system on the Varioskan Flash multimode reader (Thermo Scientific, USA). For the amplification of human DNA and parasitic DNA, three pairs of primers specific for human GAPDH (hGADPH), T. cruzi satellite DNA, and T. gondii B1 gene DNA were used (Table 7). Each reaction mixture contained 0.5 µL of 10 nM of each primer (Forward and reverse), 1 ng of DNA from T. cruzi samples, 10 ng of DNA from T. gondii samples, 10 µL of SensiFASTTM SYBR Hi-ROX kit (Bioline, Heidelberg, Baden Württemberg, Germany), and ultrapure water (Sigma-Aldrich, St. Louis, MO, USA) for a total of 20 µL.
(§2) Amplification was carried out using the CFX96 Touch Deep Well Real-Time PCR Detection System (Biorad, California, USA) with the following cycling program: initial denaturation at 95°C for 3 min, followed by 40 cycles of denaturation at 95°C for 5 s, annealing at 60°C for 30 s, and a dissociation stage ranging from 60°C to 95°C. The relative quantification analysis of the results was expressed as RQ values using the comparative […] (∆∆Ct) ([80]).

[8] = system: HPE exposed to T. gondii tachyzoites; assay: Histopathology of HPE infected with T. gondii; type: cell-based, human; conditions: IC50 concentration
Description: as §1

[9] = Cytotoxicity on cells (resazurin), BeWo; type: cell-based; conditions: human, BeWo trophoblast cells
Description: (§3) Triton X-100 was used as a positive control, and untreated cells served as a negative control. In addition, the maximum concentration of DMSO was used as a control for the method. […] The obtained values were expressed as IC50([88]).

[10] = system: T. gondii (RH strain) in HPE; assay: T. gondii DNA load in infected human placental explants (HPE) by real-time qPCR; type: cell-based, Toxoplasma gondii; conditions: IC50 concentration
Protocol: The effect on HPE infection of compounds 1 and 7 by Toxoplasma gondii and Trypanosoma cruzi, respectively, was evaluated. To do this, the DNA of the T. gondii or T. cruzi parasite was quantified by infecting HPE for 24 hours under treatment conditions of co-incubation of compounds with the parasite at the same time of infection, and with a 24 hour post-infection treatment. The compound’s IC50 concentration value previously obtained under both conditions was used.
Term human placentas were obtained from uncomplicated pregnancies via scheduled cesarean sections. Each patient provided informed consent for the experimental use of the placenta, and the study was approved by the ethics committee of Hospital San José, Servicio Salud Metropolitano Norte (N° 013/2022). Exclusion criteria for placental use included significant fetal anomalies, placental tumors, intrauterine infection, positive serology for Chagas disease, obstetric pathology, and any other maternal disease. Donor patients tested negative for T. gondii IgG/IgM antibodies. Organs were collected in sterile, cold PBS and processed within 30 minutes after delivery. Maternal and fetal surfaces of each placenta were discarded, and the villous tissue from the central part of the placental cotyledons was isolated. […] All the experiments were performed in triplicate in at least three different placentas.
Cells or HPE were exposed to parasites. […]
Subsequently, cells were exposed to parasites at a 1:1 ratio (cell: parasite) for 24 hours. […] The resulting DNA was quantified using a μDrop Plate DNA quantification system on the Varioskan Flash multimode reader (Thermo Scientific, USA). […]
as §2

[11] = system: T. gondii (RH strain) in BeWo cells; assay: Infection of BeWo cells by T. gondii, infected cells counted by fluorescence microscopy; type: cell-based, Toxoplasma gondii; conditions: compound at IC50, untreated control 64 ± 6
Protocol: The effect of the compounds on the infection of BeWo trophoblast cells by T. gondii and T. cruzi was assessed. The DNA of T. gondii and T. cruzi was quantified in infected BeWo cells treated for 24 hours under two conditions: co-incubation and post-infection treatment. […] Fluorescence microscopy was employed to quantify the number of infected cells. The resulting images were analyzed using ImageJ software to count both infected and uninfected cells.
For the microscopic analysis of BeWo cells infected with T. cruzi, the cells were washed with PBS to remove the supernatant, fixed with 90% cold methanol, rewashed with PBS, and incubated for 5 minutes with 1 µg/mL—1 4,6-diamidino-2-phenylindole (DAPI) (Molecular Probes). To analyze BeWo cells infected with T. gondii, cells were fixed with 90% cold methanol, washed with PBS containing 0.05% Tween, and blocked using 3% BSA for 1 hour at 37°C. Then, they were incubated with the primary monoclonal antibody Toxoplasma gondii (TP3): sc-52255 at a dilution of 1:500 with 1% BSA overnight at 4°C. Afterward, the samples were incubated with the FITC anti-mouse IgG secondary antibody at a dilution of 1:100 with 1% BSA for 1 hour at 37°C. Finally, they were washed with PBS containing 0.05% Tween and incubated for 5 minutes with DAPI. Subsequently, the sections were mounted in Vectashield (ScyTek ACA). Sections for the analysis of cell infection by T. cruzi and T. gondii were observed under an epifluorescence microscope (Motic BA 310), and images were captured with a Motic 5 camera. T. cruzi amastigotes were identified by their morphology, including nuclear size and the presence of a kinetoplast, and were analyzed and quantified using ImageJ. At least 500 cells per condition were analyzed, and infected and non-infected cells were counted for every 100 cells ([35], [70]).
as §1

[12] = Cytotoxicity on cells (resazurin), EA.hy926; type: cell-based; conditions: human, EA.hy926 endothelial cells
Description: as §3

[13] = system: T. gondii tachyzoites (strain RH); assay: Intracellular ROS generation (DCF probe) in T. gondii; type: cell-based, Toxoplasma gondii; conditions: compound at IC50, menadione 20 µM, 40 minutes, vs untreated control
Protocol: ROS detection was performed using the 2′,7′-dichlorodihydrofluorescein diacetate (DCFH2-DA) method ([45]). For the assay, Dm28c trypomastigotes and tachyzoites were seeded in 96-well plates at a density of 10⁶ parasites/mL. In contrast, BeWo cells were seeded at 5 × 10⁴ cells per well, using the previously described culture medium.
After incubation with 20 µM DCFH2-DA for 15 minutes at 37°C, the parasites were centrifuged at 3,500 × g, washed twice with PBS (pH 7.4), and subsequently transferred to Nunc 96-well fluorescence plates. Meanwhile, after 24 hours of incubation at 37°C and 5% CO₂, the culture medium of BeWo cells was replaced, and 20 µM DCFH2-DA solution was added, followed by a 15 minute incubation at 37°C. The cells were then washed with PBS at pH 7.4. As a positive control, 20 µM menadione was used, while the negative control consisted of culture medium without compounds.
Over time, the area under the fluorescence increase curve was determined using Origin 8 software (version 9.2), with normalization relative to the control. The results correspond to three independent experiments' mean ± standard deviation (SD).

[14] = system: T. gondii tachyzoites (strain RH); assay: ESR spin trapping with DMPO in T. gondii; type: cell-based, Toxoplasma gondii; conditions: compound about 1 mM, menadione 20 µM
Protocol: (§4) Each tested hybrid was dissolved in spectroscopy-grade DMSO at an approximate concentration of 1 mM and added to a mixture containing Trypanosoma cruzi (Dm28c strain) or Toxoplasma gondii at a density of 50 × 10⁶ trypomastigotes or tachyzoites per mL, along with DMPO at a final concentration of 250 mM. Menadione (20 µM) was used as a positive control.
(§5) All spectra were acquired on the same scale after 15 scans.

[15] = system: T. cruzi trypomastigotes (strain Dm28); assay: ESR spin trapping with DMPO in T. cruzi; type: cell-based, Trypanosoma cruzi; conditions: compound about 1 mM, menadione 20 µM
Protocol: as §4, §5

SMILES: C/C(=N\NC(=S)Nc1ccccc1)c1cc2cc([N+](=O)[O-])ccc2oc1=O [Compound 8, (E)−2-(1-(6-nitro-2-oxo-2H-chromen-3-yl)ethylidene)-N-phenylhydrazine-1-carbothioamide]
- viability at 100 µM [1]: 45.2 ± 6.7%
- viability at 100 µM ([2]; Toxoplasma gondii, tachyzoites RH, 100 µM, 24 h): 86.2 ± 14.4%
- Lipophilicity (RM) [3]: 0.20
- activity over intracellular amastigotes [4]: most active
- E(pIIa) ([5]; anodic peak IIa): −0.86 V
- E(pIIIc) ([5]; cathodic peak IIIc, hydroxylamine formation): −1.39 V
- E(pIIc) ([5]; cathodic peak IIc, nitro anion radical couple): −0.94 V
- E(pIVc) ([5]; cathodic peak IVc, imine reduction): −1.68 V

SMILES: CCc1nc(N)nc(N)c1-c1ccc(Cl)cc1 [PMN, pyrimethamine, reference compound]
- tissue damage caused by the compound itself in HPE [6]: neither compound induced tissue damage
- effect on parasite DNA load ([7]; co-incubation): more significant
- effect on parasite DNA load ([7]; post-infection treatment): significantly reduced the parasite DNA load
- IC50 ([2]; Toxoplasma gondii, extracellular tachyzoites RH strain, 24 h, resazurin): 20.8 ± 1.1 µM
- SI = BeWo CC50/parasite IC50 ([2]; parasite T. gondii): 6.03
- SI = EA.hy926 CC50/parasite IC50 ([2]; parasite T. gondii): 13.8
- tissue damage in infected HPE (histopathology) ([8]; co-incubation): without causing tissue damage
- tissue damage in infected HPE (histopathology) ([8]; post-infection treatment): decreased the induced tissue damage
- CC50 at 24 h [9]: 125.5 ± 0.8 µM
- effect on parasite DNA load ([10]; 24 hour post-infection treatment): decreased; also recorded: effectively reduced the explants’ parasitic load
- effect on parasite DNA load ([10]; co-incubation): effectively reducing the parasitic load
- Infected cells (%) ([11]; co-incubation 24 h): 19 ± 2%
- Infected cells (%) ([11]; post-infection treatment 24 h): 16 ± 4%
- CC50 at 24 h [12]: 287.5 ± 0.9 µM

SMILES: CC1=CC(=O)c2ccccc2C1=O [menadione, reference compound]
- ROS generation (DCF fluorescence) [13]: significant increase in ROS production
- radical species detected by ESR spin trapping (DMPO) [14]: formation of multiple signals
- radical species detected by ESR spin trapping (DMPO) [15]: triplet (aN ~15.5 G) corresponding to a DMPO-derived oxidized paramagnetic compound
